From US20210260142A1, “COMPOSITIONS BASED ON DIETARY FIBERS AND ESSENTIAL OILS” (Ralco Nutrition, Inc., priority 2020, published 2021)

Experiments:
Eimeria tenella = experiment: Anticoccidial efficacy battery-cage study, E. tenella lesions and oocysts
Eimeria maxima = experiment: Anticoccidial efficacy battery-cage study, E. maxima lesions and oocysts
Eimeria acervulina = experiment: Anticoccidial efficacy battery-cage study, E. acervulina lesions and oocysts
[1] = 3-Oil screening trial, 35 days, cocci stress; assay type: in vivo, Cobb 500 cockerels; conditions: product in feed
Description: 640 1-day-old Cobb 500 cockerels were wing banded, weighed and randomly assigned to pens on the day of delivery. Each pen was 3 feet wide by 2 feet long by 2 feet tall holding 10 birds each; density was 0.6 sq. ft. per bird. The pens were contained within two battery cages in a single barn, each with battery cage having 4 levels and 8 pens per level for a total of 32 pens per battery. The experimental period was 35 days divided into three (3) feeding stages, starter, grower and finisher. Bird weight, average daily gain (ADG), average daily feed intake (ADFI), feed to gain (FG) and Coccidiosis oocyte counts were determined at each period. This study was performed with a large number of treatments in order to screen a number of possible treatments for further future investigations. […]

[2] = Day 20, Johnson and Reid 1970 scoring, five birds per cage

Compound	Lesion Scores Eimeria tenella (Eimeria tenella; [2]) [b]	Oocysts/Gram Eimeria tenella (Eimeria tenella; feces Day 19 to Day 20) [bc Oocysts/Gram]	Lesion Scores Eimeria maxima (Eimeria maxima; [2]) [days]	Oocysts/Gram Eimeria maxima (Eimeria maxima; feces Day 19 to Day 20) [bc Oocysts/Gram]	Lesion Scores Eimeria acervulina (Eimeria acervulina; [2]) [days]	Oocysts/Gram Eimeria acervulina (Eimeria acervulina; feces Day 19 to Day 20) [cd Oocysts/Gram]	Average bird weights at thirty-five (35) days [1] [grams]
CC[C@@H](C(=O)[C@@H](C)[C@@H](O)[C@H](C)[C@@H]1O[C@@H]([C@@H](CC)C(=O)O)CC[C@@H]1C)[C@H]1O[C@]2(C=C[C@@H](O)[C@]3(CC[C@@](C)([C@H]4CC[C@](O)(CC)[C@H](C)O4)O3)O2)[C@H](C)C[C@@H]1C [Salinomycin]	0.9	1843	0.7	212	0.8	18403	
O=CC=Cc1ccccc1 [cinnamaldehyde]							2180.2
